# Experimental data published in patent US20040234592A1, “Dermatological formulations” (priority 2001, published 2004).
# Legend:
# [1] = tested on: genes important for skin structure and function; settings: established models of human skin; cited from earlier work
# [2] = tested on: atrophy induced by topical betamethasone; experiment: Betamethasone-induced skin atrophy in mice, concomitant TriAc; assay type: in vivo; settings: concomitant treatment with topical betamethasone
structure (smiles),measurement,setting,value
"O=C(O)Cc1cc(I)c(Oc2ccc(O)c(I)c2)c(I)c1 [TriAc, [4-(4-Hydroxy-3-iodophenoxy)-3,5-diiodophenyl]acetic acid]",expression of genes important for skin structure and function,[1],regulate expression of several genes
same,atrophy (reduction of total collagen and of cross-linking between collagen bundles in the dermis),[2],totally prevents the atrophy
